Test results published in US9462808B2, “Pesticidal compositions” (Syngenta Participants AG, priority 2010, dated 2016).
Like-named read-outs stand apart in the source and are kept apart here.

Assays:
Type in all cases: in vivo
[1] = test system: Rhopalosiphum padi (cereal aphid); assay: Activity against Rhopalosiphum padi (cereal aphid) on wheat, spray with safener cloquintocet, 6 days after application (Example B1); details: 144 h, test compound 25 ppm, adjuvant Mero 0.1% v/v, 6 days after application, Abbott's formula, read-out: Efficacy (% mortality) against cereal aphids (Rhopalosiphum padi)
Description: One replicate consisted of 4 wheat plants per pot. […] 9 days after seeding all wheat plants (10replicates) were sprayed with respective test solutions. […] 6 days after application aphid mortality and phytotoxicity were evaluated. […] Additionally the average plant height per replicate was measured.

[2] = test system: Nilaparvata lugens (brown plant hopper, BPH); assay: Activity against Nilaparvata lugens (brown plant hopper, BPH) on rice, spray with safeners, 7 d after application (Example B2); details: 168 h, read-out: % mortality, corr.; for mortality at 25 ppm: 25 ppm AI; for mortality at 50 ppm: 50 ppm AI; for mortality at 100 ppm: 100 ppm AI; for mortality at 200 ppm: 200 ppm AI
Description: Eight replicates (pots with rice plants) were sprayed with respective test solutions. Test solutions contained the formulated test compound and the safener cloquintocet and N-(2-methoxybenzoyl)-4-[(methylaminocarbonyl)amino]-benzenesulfonamide at different ratios. 4 pots were infested with plant hopper nymphs right after application. 7d after application BPH mortality and plant safety were evaluated. […] Assessment on plant safety was done by measuring the average plant height per replicate.

[3] = test system: Rhopalosiphum padi (cereal aphid); assay: Activity against Rhopalosiphum padi (cereal aphid) on wheat, selected safeners at different mixture ratios, 7 DAA (Example B3); details: AI rate 12.5 ppm
Description: One replicate consisted of 4 wheat plants per pot. […] Test solutions contained the formulated test compounds, the adjuvant Mero (0.1% v/v), and selected safeners at different mixture ratios. 7d after application aphid mortality and was evaluated.

[4] = test system: Wheat, Triticium durum (Poaceae) var. Arina; assay: Reduction of phytotoxicity by safeners applied as seed treatment with compound of formula I on wheat (Example B4)
Description: Test compounds: compound P1.2 according to Table P1, as SC 050; Safener 1=cloquintocet-mexyl, as WP 25, Safener 2=mefenpyr-diethyl as WP 25, Safener 3═N-(2-methoxybenzoyl)-4-[(methylaminocarbonyl)amino]benzenesulfonamide, as SC 100. • Plants: Wheat, Triticium durum (Poaceae) var. Arina • Seed treatment: The seeds were treated by shaking the seeds with a slurry for 30 seconds in a glass flask. Treatments were 10% overdosed to compensate for substance adhering to the flask. In a first step, compound P1.2 was treated on the seeds. Afterwards the safeners were treated on the dried seeds. […] The loading rates of the safeners were 0.5, 0.1 and 0.025 mg a.i./seed. Soil: “Drench soil”, loamy sand, prefertilised with 1 g/I soil of Landor 13.1.3.21. • Procedures: 9-cm pots were filled with 330 ml of Drench soil loamy sand and the seeds were placed into the soil in about 5 mm beneath the soil surface. • Conditions: During the growth period the plants were kept in a randomised fashion in a greenhouse chamber at 25° C. during daytime, 23° C. during night, 50-60% rH, a 14-hour photoperiod and artificial lighting when natural light fell below 20 kLux. During the exposure the assay was kept at 22° C. • Assessments: 14 days after emergence, the phytotoxicity was recorded.

CCOC(=O)OC1=C(c2c(C)cc(C)cc2C)C(=O)N(C)C12CCN(OC)CC2 [Compound P1.2, Carbonic acid ethyl ester 8-methoxy-1-methyl-2-oxo-3-(2,4,6-trimethyl-phenyl)-1,8-diaza-spiro[4.5]dec-3-en-4-yl ester]
mortality at 25 ppm ([1]; ratio AI:safener cell blank (no safener), wheat): 97.4% | mortality at 25 ppm ([1]; safener cloquintocet, ratio AI:safener 1:1, wheat): 93.4% | mortality at 25 ppm ([1]; safener cloquintocet, ratio AI:safener 1:2, wheat): 94.4% | mortality at 12.5 ppm ([2]; 12.5 ppm AI, Safener 2, ratio AI:safener 0.9:1, 7 d after application): 0% | mortality at 25 ppm ([2]; Cloquintocet, ratio AI:safener 1.9:1, 7 d after application): 30% | mortality at 25 ppm ([2]; Safener 2, ratio AI:safener 1.9:1, 7 d after application): 3% | mortality at 50 ppm ([2]; Cloquintocet, ratio AI:safener 1.25:1, 7 d after application): 57% | mortality at 50 ppm ([2]; Safener 2, ratio AI:safener 1.25:1, 7 d after application): 42% | mortality at 100 ppm ([2]; Cloquintocet, ratio AI:safener 7.5:1, 7 d after application): 78% | mortality at 100 ppm ([2]; Safener 2, ratio AI:safener 7.5:1, 7 d after application): 68% | mortality at 200 ppm ([2]; Cloquintocet, ratio AI:safener 15:1, 7 d after application): 93% | mortality at 200 ppm ([2]; Safener 2, ratio AI:safener 15:1, 7 d after application): 85% | Efficacy (% mortality) against cereal aphids (Rhopalosiphum padi) 7DAA ([3]; + Cloquintocet-mexyl, ratio AI:safener 1:2): 94% | Efficacy (% mortality) against cereal aphids (Rhopalosiphum padi) 7DAA ([3]; + Cloquintocet-mexyl, ratio AI:safener 1:4): 91% | Efficacy (% mortality) against cereal aphids (Rhopalosiphum padi) 7DAA ([3]; + Cloquintocet-mexyl, ratio AI:safener 1:8): 91% | Efficacy (% mortality) against cereal aphids (Rhopalosiphum padi) 7DAA ([3]; + Mefenpyr-diethyl, ratio AI:safener 1:2): 97% | Efficacy (% mortality) against cereal aphids (Rhopalosiphum padi) 7DAA ([3]; + Mefenpyr-diethyl, ratio AI:safener 1:4): 92% | Efficacy (% mortality) against cereal aphids (Rhopalosiphum padi) 7DAA ([3]; + Mefenpyr-diethyl, ratio AI:safener 1:8): 92% | Efficacy (% mortality) against cereal aphids (Rhopalosiphum padi) 7DAA ([3]; + Safener 2 (N-(2-methoxybenzoyl)-4-[(methylaminocarbonyl)amino]benzenesulfonamide), ratio AI:safener 1:2): 97% | Efficacy (% mortality) against cereal aphids (Rhopalosiphum padi) 7DAA ([3]; + Safener 2 (N-(2-methoxybenzoyl)-4-[(methylaminocarbonyl)amino]benzenesulfonamide), ratio AI:safener 1:4): 95% | Efficacy (% mortality) against cereal aphids (Rhopalosiphum padi) 7DAA ([3]; + Safener 2 (N-(2-methoxybenzoyl)-4-[(methylaminocarbonyl)amino]benzenesulfonamide), ratio AI:safener 1:8): 97% | Efficacy (% mortality) against cereal aphids (Rhopalosiphum padi) 7DAA ([3]; no safener, spray on wheat, Abbott's formula): 98% | Phytotoxicity after seed treatment ([4]; P1.2 0.1 mg a.i./seed with safeners (cloquintocet-mexyl, mefenpyr-diethyl, N-(2-methoxybenzoyl)-4-[(methylaminocarbonyl)amino]benzenesulfonamide), wheat, 14 days after emergence): safeners protect the plants from the adverse effects | Phytotoxicity (%) of compound P1.2 on wheat, control without safener ([4]; seed treatment, 1 mg compound P1.2, without safener): Control: application of 1 mg compound P1.2. without safener results in 64.3% phyotoxicity
